We go through 79 compounds from the METLIN SMRT retention time set (Domingo-Almenara et al. 2019).

This data set is described as follows: gradient 5% acetonitrile 3 min, to 50% in 2 min, to 85% in 15 min, held 3 min, 100 µL/min. The conditions noted are these: column: Zorbax Extend-C18 2.1 x 50 mm; eluents: water / acetonitrile, 0.1% formic acid. A digest of the protocol:
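Values are retention times taken from adduct peaks that software picked and an analyst inspected. The pure standards were run as mixtures of ~100 molecules on HPLC linked to a quadrupole time-of-flight mass spectrometer, in positive and negative ionization mode. A Zorbax Extend-C18 column (2.1 × 50 mm, 1.8 μm) was used at 100 μL/min with water and acetonitrile, each including 0.1% formic acid.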
On to `C[C@@H](O)[C@H](NC(=O)c1ccc(C#Cc2ccc(CN3CCOCC3)cc2)cc1)C(=O)NO`, for which the RP-LC retention time was found to be 629 s. The value for `O=c1[nH]cc(S(=O)(=O)NC2CC3CCC2C3)c(=O)[nH]1` (centres undefined) was 637 s. As for `CCN(CC)CCNC(=O)c1ccc(NCN2C(=O)NC(c3ccccc3)(c3ccccc3)C2=O)cc1`, the RP-LC retention time turned out to be 726 s. The result for `COC(=O)CNC(=O)N1CCc2cc(-c3ccc(C(=O)N4CCOCC4)cc3)ccc21` reads 635 s; that for `Cc1sc(-c2cc(C(F)(F)F)on2)cc1S(=O)(=O)Nc1cccc(Cl)c1C`, 1240 s; that for `COC(=O)c1ncn2c1C(=O)N(c1ccc(C)c(C)c1)C(C)(C(=O)NC1CCCC1)C2` (centres undefined), 750 s.

With `COc1cccc2c(Nc3ccccc3C)cc(C(=O)N3CCSCC3)nc12`, the RP-LC retention time was found to be 689 s.

Compound `CCN(Cc1ccccc1)c1ncc(NC(=O)c2ccccc2Cl)cc1C(=O)O` gave an RP-LC retention time of 723 s. The value for `Cc1cc(-c2nnc(-c3ccc(F)cc3)o2)c(C)n1CC(=O)NCc1ccc(F)cc1F` was 939 s; that for `CCc1noc(NC(C)=O)c1-c1ccc(OC)c(S(=O)(=O)Nc2ccc(F)cc2Cl)c1` was 841 s; that for `CCN1C(=O)C2(CCN(S(=O)(=O)c3ccc(OC)c(Cl)c3)CC2)c2ccccc21` was 1080 s. The result for `CCCN1C(=O)COc2ccc(-c3noc(CCc4ccccc4)n3)cc21` reads 1150 s; that for `Cc1nc(-c2cccc(-c3noc(CNC(=O)c4ccccc4)n3)c2)cs1`, 918 s. The value for `CC(C)c1cc(C(=O)Nc2cccc(C#N)c2)nc2ccnn12` was 1030 s. As for `Cc1c(C(=O)C(=O)NCCc2ccccc2)c2ccccc2n1C`, the RP-LC retention time turned out to be 887 s.

Turning to `CCCCC(=O)N1CCC2(C1)C(=O)N(C)c1ccc(OC)cc12` (centres undefined), the RP-LC retention time was 744 s.

In turn, `COc1ccc(CC(=O)NCc2ccc3c(c2)ncn3C(C)C)cc1` returned an RP-LC retention time of 600 s. `COc1ccc(CNC(=O)CN2CCN(Cc3ccc(F)cc3)C2=O)c(OC)c1` yielded an RP-LC retention time of 793 s. `COC(=O)COc1cc(-c2cccc(Cl)c2)nc2ccc(NC(=O)C3CC3)cc12` gave an RP-LC retention time of 823 s. The result for `Cc1ccsc1C(=O)Nc1ccc(OCc2nnc(-c3ccc(Cl)cc3)o2)cc1` reads 1010 s. The result for `COc1ccc(-c2noc(Cc3nnc(-c4cc(F)cc(F)c4)o3)n2)cc1` reads 1040 s; that for `O=C(CCn1ccc2cc(S(=O)(=O)N3CCCCCC3)ccc21)N1CCN(c2ccccn2)CC1`, 710 s; that for `COc1cc(CNC(=O)C2CC(=O)N(c3ccc4oc(C)nc4c3)C2)cc(OC)c1` (centres undefined), 687 s.

Turning to `CC(=O)N1CCc2cc(N3CC(C(=O)Nc4cccc(C(F)(F)F)c4)CC3=O)ccc21` (centres undefined), the RP-LC retention time is 791 s. For `COc1ccc(Cn2nc3ccc(S(=O)(=O)N4CCOCC4)cn3c2=O)cc1`, the RP-LC retention time worked out at 792 s. The result for `Cc1ccc(NC(=O)CN2C(=O)CCCc3cc(S(=O)(=O)N4CCCCC4)ccc32)cc1F` reads 953 s; that for `COc1ccc(NC(=O)CCS(=O)(=O)Cc2ccccc2)c2ccccc12`, 688 s; that for `CCCc1ccc(-c2csc(NC(=O)c3ccc(C)o3)n2)cc1`, 1210 s.

The compound `NC(=O)c1cc[nH]c1C1CCCN(S(=O)(=O)c2cnc[nH]2)C1` (centres undefined) came in with an RP-LC retention time of 574 s. The value for `O=C(NC1CC1)c1cc2cc(Br)ccc2[nH]1` was 817 s; that for `O=S(=O)(c1cccnc1)N1CCCCC1c1nncn1CC1CC1` (centres undefined) was 662 s. Regarding `COC(=O)C1=CN(C2CC2)c2cc(N3CCN(c4ccc(OC)cc4)CC3)c(F)cc2S1(=O)=O`, the RP-LC retention time stood at 856 s. The value for `CCN(CC)S(=O)(=O)c1ccc(NC(=O)c2ccc3c(=O)n4c(nc3c2)CCCCC4)cc1` was 875 s; that for `Cc1csc(-c2cc(S(=O)(=O)NCc3ccc(OC(C)C)cc3)c(C)s2)n1` was 1060 s; that for `COc1ccc(-c2cn3ccn(-c4ccc(C)cc4C)c(=O)c3n2)cc1OC` was 797 s. `Cc1ccc(Nc2c(-c3ccc4c(c3)OCO4)nc3cnccn23)c(C)c1` displayed an RP-LC retention time of 933 s. The result for `Cc1csc(-c2cc(S(=O)(=O)NCCc3ccc(Cl)cc3)c(C)s2)n1` reads 1110 s; that for `Cc1ccc(-c2c(C(=O)NCCN3CCOCC3)nc3ccccn23)cc1`, 616 s; that for `CN(CC(=O)N1CCN(c2cccc(Cl)c2)CC1)S(=O)(=O)c1ccc2c(c1)CCCC(=O)N2`, 822 s.

The compound `COCCN1C(=O)Cc2ccccc2C1C(=O)NCc1ccc(SC)cc1` (centres undefined) showed an RP-LC retention time of 771 s.

`O=C(NCc1ccc(Br)cc1)C1CCN(C(=O)c2cc(-c3ccncc3)n[nH]2)CC1`: the RP-LC retention time amounted to 618 s.

The compound `CCOC(=O)c1cnc2nc(-c3ccccc3Cl)nn2c1C` displayed an RP-LC retention time of 945 s. On to `COC(=O)c1cc2c(=O)n(Cc3ccccc3Cl)ccc2nc1C`, for which the RP-LC retention time was 902 s. The value for `O=C(NCc1ccccc1F)c1ccc2c(c1)CNCCO2` was 605 s; that for `O=C(CCCn1c(=O)c2cccn2c2ccc(F)cc21)Nc1ccc2c(c1)OCCO2` was 642 s; that for `COC(=O)c1cc(C)nc2c1c(=O)n(Cc1cccc(F)c1)c(=O)n2Cc1ccco1` was 1100 s.

Compound `CCc1ccc(CNC(=O)c2c(C)sc3ccn(CC)c(=O)c23)cc1` had an RP-LC retention time of 959 s. Take `CCN(CC)CCCNC(=O)C1CCN(C(=O)c2oc3cc4sc(N(C)C)nc4cc3c2C)CC1`: the RP-LC retention time was 564 s. The value for `COc1ccc(CCC(=O)Nc2cnn(-c3ncc(N4CCCC4)cn3)c2)cc1` was 822 s; that for `Cc1ccc(CNC(=O)C2(C)CCN(S(=O)(=O)c3ccccc3)CC2)cc1` was 925 s. The value for `Cc1cc(C)cc(NC(=O)Cn2cc(-c3nnc(C)o3)c3ccccc32)c1` was 903 s. The result for `Cc1ccc(-c2noc(-c3nc(-c4ccccn4)no3)n2)cc1` reads 1090 s.

For `CC(C)(C)c1ccc(C(=O)NCc2ccco2)cc1`, the RP-LC retention time is 873 s.

As for `Cc1ccc(CN2CCN(C3CCN(S(=O)(=O)c4ccc(F)c(F)c4)CC3)C(=O)C2=O)cc1`, the RP-LC retention time was found to be 880 s. The result for `COc1cccc(-c2noc(Cn3ccn4nc(-c5ccc(F)cc5)cc4c3=O)n2)c1OC` reads 1010 s; that for `Cc1ccc(C)c(NC(=O)Cn2nc(N(C)C)c3ccccc3c2=O)c1`, 862 s; that for `NC(=O)c1ccsc1NC(=O)c1c[nH]c2ccccc12`, 673 s. The value for `Cc1ccc(CN2CCN(CC(C)C(=O)NCc3ccc(F)cc3F)C(=O)C2=O)cc1` (centres undefined) was 755 s. The result for `O=C(NC1CC1)C1CCCN(C(=O)c2ccc(F)cc2)C1` (centres undefined) reads 629 s; that for `CC(=O)N1CCc2cc(N3CC(C(=O)Nc4ccc5c(c4)OCCO5)CC3=O)ccc21` (centres undefined), 667 s. `CCOC(=O)c1c(NC(=O)CN2CCN(CC)CC2)sc(C)c1C` gave an RP-LC retention time of 596 s. The value for `Fc1ccc(F)c(CN2CC(Oc3ccc(-c4noc(-c5ccncc5)n4)cc3)C2)c1` was 726 s. The result for `O=C(CCn1cnc2ccccc2c1=O)N1CCN(c2ccccn2)CC1` reads 578 s; that for `Cc1nnc(-c2ccc3ccn(CC(=O)N4CCN(c5ncccn5)CC4)c3c2)o1`, 692 s; that for `CCOc1ccccc1C(=O)N1CCC(C(=O)NCC(F)(F)F)CC1`, 665 s.

With `O=C(Nc1c(-c2ccc(F)cc2)nc2ccccn12)c1cccc(F)c1`, the RP-LC retention time was 674 s.

In the case of `COCCN1C(=O)c2ccccc2C(C(=O)Nc2nc(C)c(C)s2)C12CCCC2` (centres undefined), the RP-LC retention time was found to be 842 s. The value for `CCC(=O)Nc1ccc(CCc2nc3ccc(C(=O)NCCC4=CCCCC4)cc3[nH]2)cc1` was 696 s; that for `Cc1cc(N2CCN(C(=O)c3ccc(Br)o3)CC2)nc(N2CCOCC2)n1` was 599 s.

For `O=S(=O)(c1ccc(-c2nnc(C3CC3)o2)o1)N1CCCCCC1`, the RP-LC retention time is 898 s.

Take `O=C(NCc1ccco1)N1CCCn2nc(-c3cccc(Cl)c3)cc2C1`: the RP-LC retention time came to 854 s. The result for `COc1ccccc1C(CNC(=O)c1cc(=O)c2cc(Cl)ccc2o1)N(C)C` (centres undefined) reads 647 s. The value for `CCNC(=O)N1C[C@@H]2CCCN3CCC[C@@H]([C@H]23)[C@H]1CCCC(=O)NCC1CC1` was 569 s.

As for `COc1ccc(NC(=O)N2C[C@H]3C[C@H](C2)[C@H]2CCCC(=O)N2C3)cc1OC`, the RP-LC retention time was determined as 612 s. The value for `CCCC(C)NC(=O)c1cc2c(s1)N(C)CCCC2` (centres undefined) was 974 s. The compound `CNC(=O)N1CC(C)Oc2ccc(C)cc21` (centres undefined) had an RP-LC retention time of 765 s. The result for `COCC(=O)Nc1ccccc1NC(=O)c1ccsc1` reads 648 s; that for `O=C(Nc1ncnc2c1CCC2)c1ccc(S(=O)(=O)N2CCc3ccccc3C2)cc1`, 783 s. `CN1CCC(NC(=O)C2CCN(c3nc4ccc(-c5ccsc5)nc4s3)CC2)CC1` showed an RP-LC retention time of 640 s.
